Measurements reported in patent publication US6403605B1, “Methods for the normalization of sexual response and amelioration of long term genital tissue degradation” (Queen's University at Kingston, priority 1998, dated 2002).

Columns and labels:
[1] = tested on: patients diagnosed with male erectile dysfunction with no major organic component; test: Multi-center, double-blind, randomized, placebo-controlled study: duration of erection and time to erection; assay type: in vivo, human; conditions: for Duration of Erection, Difference in Means: all attempts; for Time to Erection, Kaplan-Meier Median: all attempts (60 minutes if no erection); for Time to Erection, Kaplan-Meier Estimation of Median Time to Erection (Treatment Means): attempts when erection occurred, first eight attempts
Experimental: A multi-center, double-blind, randomized, placebo-controlled, three-armed study was conducted on 370 patients diagnosed with male erectile dysfunction with no major organic component. For each sequence, patients received placebo in one of the treatment periods, and a dose (2 mg, 4 mg, or 6 mg) of apomorphine in the other treatment period.
During treatment periods of the study, patients and their sexual partners were instructed to attempt intercourse a minimum of twice weekly. Each time the study drug was taken, a questionnaire was completed by the patient and by the partner and mailed to the study sponsor. The questionnaire recorded the date and time the study drug was taken, an evaluation of the erection, whether or not sexual intercourse had occurred, and satisfaction associated with each attempt. The patient also completed a diary which recorded the latency and duration of erections associated with the use of the study drug and antiemetic and concomitant medication usage and any adverse effects. If an erection occurred after administration to the patient of the study drug, the duration of erection and time-to-erection were recorded in the patient diary.
The data in Table 2 also indicate a dose-dependent, statistically significant difference of duration of erection, with a difference of almost 5 minutes between patients taking the 6 mg dose and those receiving placebo.
In those cases where no erection was achieved, a value of 60 minutes time-to-erection was used in the statistical analysis. The data in Table 3 show differences in latency periods between patients receiving apomorphine and those receiving placebo, but the differences probably reflect the inclusion in the data of 60 minute values for those cases in which no erection was achieved.

[2] = Pharmacokinetic evaluation of apomorphine (FIG. 1, mean plasma concentrations after sub-cutaneous and sublingual doses)
[3] = tested on: female rats; test: Studies with female rats: sexual arousal behaviors; assay type: in vivo, rat; conditions: female rats treated with combination of apomorphine and low doses of testosterone
From the text: When co-administration of an androgen is utilized in this method of the invention, the androgen is given is doses sufficient to produce plasma concentrations of about 1 nmol/L to 200 nmol/L.

SMILES: CN1CCc2cccc3c2[C@H]1Cc1ccc(O)c(O)c1-3 [Apomorphine, (R)-5,6,6a,7-tetrahydro-6-methyl-(4H)-dibenzo[de,g]quinoline-10,11-diol]
- Duration of Erection, Difference in Means ([1]; 2 mg apomorphine vs placebo): 1.936 min
- Duration of Erection, Difference in Mean ([1]; 2 mg apomorphine vs placebo, only attempts where erection was achieved): 1.811 min
- Duration of Erection, Mean ([1]; 2 mg apomorphine, sublingual, all attempts (zero minutes if no erection)): 5.020 min
- Time to Erection, Kaplan-Meier Median ([1]; 2 mg apomorphine): 42.17 min
- Time to Erection, Kaplan-Meier Estimation of Median Time to Erection (Treatment Means) ([1]; 2 mg apomorphine): 11.33 min
- Duration of Erection, Mean ([1]; 2 mg apomorphine, only attempts where erection was achieved): 10.82 min
- Duration of Erection, Difference in Means ([1]; 4 mg apomorphine vs placebo): 3.578 min
- Duration of Erection, Difference in Mean ([1]; 4 mg apomorphine vs placebo, only attempts where erection was achieved): 3.458 min
- Duration of Erection, Mean ([1]; 4 mg apomorphine, sublingual, all attempts (zero minutes if no erection)): 6.903 min
- Time to Erection, Kaplan-Meier Median ([1]; 4 mg apomorphine): 36.00 min
- Time to Erection, Kaplan-Meier Estimation of Median Time to Erection (Treatment Means) ([1]; 4 mg apomorphine): 12.61 min
- Duration of Erection, Mean ([1]; 4 mg apomorphine, only attempts where erection was achieved): 12.49 min
- Duration of Erection, Difference in Means ([1]; 6 mg apomorphine vs placebo): 5.138 min
- Duration of Erection, Difference in Mean ([1]; 6 mg apomorphine vs placebo, only attempts where erection was achieved): 4.925 min
- Duration of Erection, Difference in Mean ([1]; 6 mg apomorphine vs placebo, only attempts where erection was achieved, listed as apomorphine): ~5 min
- Duration of Erection, Mean ([1]; 6 mg apomorphine, sublingual, all attempts (zero minutes if no erection)): 8.393 min
- Time to Erection, Kaplan-Meier Median ([1]; 6 mg apomorphine): 31.33 min
- Time to Erection, Kaplan-Meier Estimation of Median Time to Erection (Treatment Means) ([1]; 6 mg apomorphine): 12.82 min
- Duration of Erection, Mean ([1]; 6 mg apomorphine, only attempts where erection was achieved): 13.96 min
- difference in median time-to-erection between drug and placebo ([1]; attempts successful in achieving an erection): no statistically significant difference
- effect on duration of erection compared to placebo ([1]; doses tested (2, 4, 6 mg)): significant increase in the duration of erection
- fraction of maximum blood serum levels reached ([2]; 12 minutes following buccal administration): one-fifth to one-fourth
- plasma apomorphine levels sufficient to cause a therapeutic effect ([2]; interpolation of plasma curves for 2, 4, 6 mg up to about 20 minutes after administration): less than 0.25 ng/mL
- time to maximum plasma concentrations ([2]; sub-lingual administration (formulation used in Tables 1-4)): about 60 minutes
- behaviors associated with sexual arousal [3]: exhibited lordosis, genital grooming and other behaviors typically associated with sexual arousal
